Measured values from publication PMC9520775, “Everolimus pharmacokinetics and exposure-response relationship in Japanese patients with advanced breast cancer” (Frontiers in Pharmacology, 2022).

Tested on: patients with advanced or metastatic breast cancer
Assay: Adverse events (CTCAE Ver. 4.0), dose-limiting toxicities and dose reductions under everolimus
Type: in vivo, human
Text: This was a prospective, observational PK study. Patients with advanced or metastatic breast cancer who received everolimus between November 2015 and November 2018 at Kobe City Medical Center General Hospital were enrolled in this study. The main inclusion criteria included the following: age ≥20 years; Eastern Cooperative Oncology Group (ECOG) performance status (PS): 0 or 1; and adequate bone marrow, liver, and renal function. The main exclusion criteria were interstitial pneumonia or pulmonary fibrosis, HBsAg positive, and psychiatric or psychological symptoms that made it difficult to participate in the study. Every participant provided written informed consent. This study was conducted in accordance with the Declaration of Helsinki and approved by the Institutional Review Board, under Approval Number zn151103.
Based on the physician’s decision, the patients were prescribed a starting dose of either 5 or 10 mg everolimus once daily. The everolimus dose was reduced when a patient experienced adverse events higher than grade 2. The first reduced dose was 5 mg once daily, followed by the second reduced dose of 2.5 mg once daily or 5 mg every alternate day. In addition, everolimus doses could be increased if adverse events improved to grade 1 or less, or deemed inefficacious. The adverse events were evaluated weekly for the first month and then every 1–4 weeks, according to the Common Terminology Criteria for Adverse Events Ver. 4.0.
Statistical differences in everolimus trough concentrations, doses and body weights between patient cohorts were assessed using the Mann–Whitney test. Progression-free survival (PFS) was assessed using the Kaplan-Meier method and the log-rank test. All statistical analyses were performed using GraphPad Prism version 7.03 (San Diego, CA). p < 0.05 was considered statistically significant.

[1] = All patients (n = 18), Grade All
[2] = Initial dose: 5 mg/day (n = 6), Grade 1
[3] = Initial dose: 5 mg/day (n = 6), Grade 2

CO[C@H]1C[C@@H]2CC[C@@H](C)[C@@](O)(O2)C(=O)C(=O)N2CCCC[C@H]2C(=O)O[C@H]([C@H](C)C[C@@H]2CC[C@@H](OCCO)[C@H](OC)C2)CC(=O)[C@H](C)/C=C(\C)[C@@H](O)[C@@H](OC)C(=O)[C@H](C)C[C@H](C)/C=C/C=C/C=C/1C [everolimus]
8: Adverse event, n: Hypertriglyceridemia (All patients (n = 18), Grade 1)
14: Adverse event, n: Rash [1]
11: Adverse event, n: Rash (All patients (n = 18), Grade 1) | Adverse event, n: High cholesterol [1]
significantly higher: trough concentrations at DLTs compared with trough concentrations in the absence of DLTs (DLT (n = 13) vs no DLT (n = 18), Mann-Whitney test, p = 0.0058)
6: Adverse event, n: Epistaxis (All patients (n = 18), Grade 1) | Adverse event, n: Hypokalemia (All patients (n = 18), Grade 1) | Adverse event, n: Malaise (All patients (n = 18), Grade 1) | Adverse event, n: Epistaxis [1] | Adverse event, n: Neutrophil count decreased [1]
10: Adverse event, n: Mucositis oral (All patients (n = 18), Grade 2)
12: Adverse event, n: Hypertriglyceridemia [1]
7: Adverse event, n: Mucositis oral (All patients (n = 18), Grade 1) | Adverse event, n: Malaise [1]
2: Adverse event, n: Neutrophil count decreased (All patients (n = 18), Grade 1) | Adverse event, n: High cholesterol (All patients (n = 18), Grade 2) | Adverse event, n: Interstitial lung disease (All patients (n = 18), Grade 2) | number of patients, DLTs (−) (Dose 5 mg, BW 55.1–60.0 kg) | number of patients, DLTs (+) (Dose 10 mg, BW 45.1–50.0 kg) | number of patients, DLTs (+) (Dose 10 mg, BW 50.1–55.0 kg) | number of patients, DLTs (+) (Dose 10 mg, BW 55.1–60.0 kg) | Adverse event, n: Epistaxis [2] | Adverse event, n: Hyperglycemia [2] | Adverse event, n: Hypertriglyceridemia [2] | Adverse event, n: Hypokalemia [2] | Adverse event, n: Mucositis oral [2] | Adverse event, n: Platelet decrease [2]
3: Adverse event, n: Interstitial lung disease (All patients (n = 18), Grade 1) | Adverse event, n: Neutrophil count decreased (All patients (n = 18), Grade 2) | Adverse event, n: Rash (All patients (n = 18), Grade 2) | number of patients, DLTs (−) (Dose 5 mg, BW 50.1–55.0 kg) | number of patients, DLTs (+) (Dose 5 mg, BW 55.1–60.0 kg) | Adverse event, n: Rash [2]
9: Adverse event, n: High cholesterol (All patients (n = 18), Grade 1) | Adverse event, n: Platelet decrease (All patients (n = 18), Grade 1) | Adverse event, n: Hypokalemia [1] | Adverse event, n: Platelet decrease [1]
1: Adverse event, n: Diarrhea (All patients (n = 18), Grade 1) | Adverse event, n: Dysgeusia (All patients (n = 18), Grade 2) | Adverse event, n: Hyperglycemia (All patients (n = 18), Grade 2) | Adverse event, n: Hypokalemia (All patients (n = 18), Grade 2) | Adverse event, n: Malaise (All patients (n = 18), Grade 2) | Adverse event, n: Hypokalemia (All patients (n = 18), Grade 3) | Adverse event, n: Neutrophil count decreased (All patients (n = 18), Grade 3) | Adverse event, n: Hypokalemia (All patients (n = 18), Grade 4) | number of patients, DLTs (−) (Dose 5 mg, BW 36.1–40.0 kg) | number of patients, DLTs (−) (Dose 5 mg, BW 40.1–45.0 kg) | number of patients, DLTs (+) (Dose 5 mg, BW 45.1–50.0 kg) | number of patients, DLTs (+) (Dose 5 mg, BW 50.1–55.0 kg) | number of patients, DLTs (+) (Dose 10 mg, BW 36.1–40.0 kg) | number of patients, DLTs (+) (Dose 10 mg, BW 40.1–45.0 kg) | number of patients, DLTs (−) (Dose 10 mg, BW 40.1–45.0 kg) | number of patients, DLTs (−) (Dose 10 mg, BW 45.1–50.0 kg) | number of patients, DLTs (−) (Dose 10 mg, BW 60.1–65.0 kg) | number of patients, DLTs (−) (Dose 10 mg, BW 66.1–70.0 kg) | Adverse event, n: Dysgeusia [2] | Adverse event, n: Malaise [2] | Adverse event, n: Diarrhea [3] | Adverse event, n: Dysgeusia [3] | Adverse event, n: Hypertriglyceridemia [3] | Adverse event, n: Interstitial lung disease [3] | Adverse event, n: Malaise [3] | Adverse event, n: Rash [3]
5: Adverse event, n: Diarrhea [1] | Adverse event, n: Dysgeusia [1] | Adverse event, n: Hyperglycemia [1] | Adverse event, n: Interstitial lung disease [1]
17: Adverse event, n: Mucositis oral [1]
4: Adverse event, n: Dysgeusia (All patients (n = 18), Grade 1) | Adverse event, n: Hyperglycemia (All patients (n = 18), Grade 1) | Adverse event, n: Diarrhea (All patients (n = 18), Grade 2) | Adverse event, n: Hypertriglyceridemia (All patients (n = 18), Grade 2) | Adverse event, n: High cholesterol [2] | Adverse event, n: Mucositis oral [3]
0: Adverse event, n: Epistaxis (All patients (n = 18), Grade 2) | Adverse event, n: Platelet decrease (All patients (n = 18), Grade 2) | Adverse event, n: Diarrhea (All patients (n = 18), Grade 3) | Adverse event, n: Dysgeusia (All patients (n = 18), Grade 3) | Adverse event, n: Epistaxis (All patients (n = 18), Grade 3) | Adverse event, n: High cholesterol (All patients (n = 18), Grade 3) | Adverse event, n: Hyperglycemia (All patients (n = 18), Grade 3) | Adverse event, n: Hypertriglyceridemia (All patients (n = 18), Grade 3) | Adverse event, n: Interstitial lung disease (All patients (n = 18), Grade 3) | Adverse event, n: Malaise (All patients (n = 18), Grade 3) | Adverse event, n: Mucositis oral (All patients (n = 18), Grade 3) | Adverse event, n: Platelet decrease (All patients (n = 18), Grade 3) | Adverse event, n: Rash (All patients (n = 18), Grade 3) | Adverse event, n: Diarrhea (All patients (n = 18), Grade 4) | Adverse event, n: Dysgeusia (All patients (n = 18), Grade 4) | Adverse event, n: Epistaxis (All patients (n = 18), Grade 4) | Adverse event, n: High cholesterol (All patients (n = 18), Grade 4) | Adverse event, n: Hyperglycemia (All patients (n = 18), Grade 4) | Adverse event, n: Hypertriglyceridemia (All patients (n = 18), Grade 4) | Adverse event, n: Interstitial lung disease (All patients (n = 18), Grade 4) | Adverse event, n: Malaise (All patients (n = 18), Grade 4) | Adverse event, n: Mucositis oral (All patients (n = 18), Grade 4) | Adverse event, n: Neutrophil count decreased (All patients (n = 18), Grade 4) | Adverse event, n: Platelet decrease (All patients (n = 18), Grade 4) | Adverse event, n: Rash (All patients (n = 18), Grade 4) | Adverse event, n: Diarrhea [2] | Adverse event, n: Interstitial lung disease [2] | Adverse event, n: Neutrophil count decreased [2] | Adverse event, n: Epistaxis [3] | Adverse event, n: High cholesterol [3] | Adverse event, n: Hyperglycemia [3] | Adverse event, n: Hypokalemia [3] | Adverse event, n: Neutrophil count decreased [3] | Adverse event, n: Platelet decrease [3]
